Test results taken from patent US12648946B2, “Combination of antibody-pyrrolobenzodiazepine derivative conjugate and PARP inhibitor” (DAIICHI SANKYO COMPANY, LIMITED, priority 2019, dated 2026).
Where two headings read alike, the source gives them in different places.

B1: B1: mouse anti-CLDN6 antibody from hybridoma 218B1; heavy chain variable region SEQ ID NO: 21, light chain SEQ ID NO: 19 (antibody, listed as Mus musculus, V domains shown)
VH: EVQLQQSGPELVKPGASVKISCKTSGYTFTEYTMHWVQQSHGKSLEWIGGVNPNSGDTSYNQKFKGKATLTVDKSSSTAYMELRSLTSEDSAVYYCARPGGYDVGYYAMDYWGQGTSVTVSS
VL: DIQMTQTASSLSASLGDRVTISCRASQDINNYLNWYQQKPDGTVKLLIYFTSRLHSGVPSRFSGSGSGTHYSLTITNLEQEDIATYFCQQGYPLPWTFGGGTKLEIK
modifications: amino acid sequence of variable region of B1 antibody heavy chain; amino acid sequence of variable region of B1 antibody light chain

Assays:
[1] = system: human lung cancer cell line Calu-6; test: Cell growth inhibition test (1); type: cell-based; details: Calu-6, 144 h
Method: (§1) The human lung cancer cell line Calu-6 obtained from ATCC (American Type Culture Collection) was used for evaluation. Cells were prepared with MEM containing 10% fetal bovine serum (GE Healthcare), MEM Non-Essential Amino Acids Solution (Thermo Fisher Scientific), and Sodium Pyruvate (Thermo Fisher Scientific) (Thermo Fisher Scientific; hereinafter, referred to as EMEM medium) to reach 1.25×10^4 cells/mL, and 80 μL portions of them were added into a 96-well cell culture microplate. After addition of the cells, the cells were cultured at 37° C. and 5% CO2 overnight.
(§2) On the next day, 10 μL portions of pyrrolobenzodiazepine derivative A, B, or C diluted with EMEM medium to 100 pM, 50 pM, 25 pM, 12.5 pM, 6.25 pM, 3.13 pM, 1.56 pM, or 0.78 pM were added to the microplate. To each well without any pyrrolobenzodiazepine derivative, 10 μL of EMEM medium was added. Further, 10 μL portions of olaparib prepared with EMEM medium to reach 2 μM were added to the microplate. To each well without olaparib, 10 μL of EMEM medium was added. Thereafter, the microplate was cultured at 37° C. and 5% CO2 for 6 days. After culturing, the microplate was taken out of the incubator, and left to stand at room temperature for 30 minutes. CellTiter-Glo Luminescent Cell Viability Assay (Promega Corporation) in an amount equivalent to that of the culture solution was added, and stirred using a plate mixer. The microplate was left to stand at room temperature for 10 minutes, and thereafter the amount of emission was measured by using a plate reader (PerkinElmer).
(§3) Cell survival rates in wells with derivative A, B, or C were calculated by using the following formula.
(§4) [formula] • a: Mean value of amounts of emission from wells with derivative A, B, or C • b: Mean value of amounts of emission from wells with medium • IC50 values were calculated by using the following formula.
(§5) [formula] • a: Concentration of derivative A, B, or C, a • b: Concentration of derivative A, B, or C, b • c: Cell survival rate when derivative A, B, or C of concentration a was added • d: Cell survival rate when derivative A, B, or C of concentration b was added • a and b satisfy a>b at points sandwiching a cell survival rate of 50%.
Cell survival rates in wells with derivative A, B, or C added together with 2 μM olaparib were calculated by using the following formula.
[formula] a: Mean value of amounts of emission from wells with derivative A, B, or C added together with 2 μM olaparib • b: Mean value of amounts of emission from wells with 2 μM olaparib • IC50 values were calculated by using the following formula.
as §5, with “and 2 μM olaparib were” for “was”

[2] = system: human pharyngeal cancer cell line FaDu; test: Cell growth inhibition test (2); type: cell-based; details: 144 h
Method: as §1, with “pharyngeal” for “lung”, “FaDu” for “Calu-6”, “6.25×10^3” for “1.25×10^4”
as §2, with “reach 1” for “reach 2”
Cell survival rates in wells with derivative A, B, or […] were calculated by using the following formula.
as §4, §5
Cell survival rates in wells with derivative A, B, or C added together with 1 μM olaparib were calculated by using the following formula.
[formula] • a: Mean value of amounts of emission from wells with derivative A, B, or C added together with 1 μM olaparib • b: Mean value of amounts of emission from wells with 1 μM olaparib • IC50 values were calculated by using the following formula.
as §5, with “and 1 μM olaparib were” for “was”

[3] = system: human pharyngeal cancer cell line FaDu; test: Cell growth inhibition test (3); type: cell-based; details: 144 h
Method: as §1, with “pharyngeal” for “lung”, “FaDu” for “Calu-6”, “6.25×10^3” for “1.25×10^4”
as §2, with “talazoparib” for “olaparib”, “nM” for “μM”, “talazoparib,” for “olaparib,”
as §3, §4, §5
Cell survival rates in wells with derivative A, B, or C added together with 2 nM talazoparib were calculated by using the following formula.
[formula] • a: Mean value of amounts of emission from wells with derivative A, B, or C added together with 2 nM talazoparib • b: Mean value of amounts of emission from wells with 2 nM talazoparib • IC50 values were calculated by using the following formula.
as §5, with “and 2 nM talazoparib were” for “was”

[4] = system: human ovarian cancer cell line OV-90; test: Antitumor test (4), subcutaneous xenograft; type: in vivo, mouse; details: single administration
Method: Mouse: Five- to six-week-old female BALB/c nude mice (Charles River Laboratories Japan, Inc.) were subjected to experiment.
Assay and calculation formula: In all of the studies, the major axis and minor axis of a tumor were measured twice a week by using an electronic digital caliper (CD-15CX, Mitutoyo Corp.), and the tumor volume (mm^3) was calculated. The calculation formula is as shown below.
Each of the anti-CLDN6 antibody-drug conjugate ADC1, the anti-HER2 antibody-drug conjugate ADC2, and the anti-TROP2 antibody-drug conjugate ADC3 was diluted with ABS buffer (10 mM acetate buffer (pH 5.5), 5% sorbitol), and a liquid volume of 10 mL/kg was intravenously administered into the tail vein. Olaparib was dissolved in Dimethyl sulfoxide (DMSO), diluted with 10% 2-hydroxy-propyl-β-cyclodextrin (Sigma-Aldrich Co. LLC)/Dulbecco's Phosphate-Buffered Saline, and then a liquid volume of 10 mL/kg was intraperitoneally administered. Talazoparib was dissolved in DMSO, diluted with 10% N,N-dimethylacetamide/5% Kolliphor HS15 (Sigma-Aldrich Co. LLC)/Dulbecco's Phosphate-Buffered Saline, and then a liquid volume of 10 mL/kg was orally administered. […]

human claudin-6 = biological target: T1, human claudin-6 (Homo sapiens, UniProt P56747); test: FACS analysis of hybridoma antibodies on claudin-6 forced-expression cells; type: binding; details: human claudin-6-expressing CHO-K1 cells, cDNA transfection
T1 construct: expressed in transfected cells; host or cells: CHO-K1 cells
T1 sequence (P56747 1-220): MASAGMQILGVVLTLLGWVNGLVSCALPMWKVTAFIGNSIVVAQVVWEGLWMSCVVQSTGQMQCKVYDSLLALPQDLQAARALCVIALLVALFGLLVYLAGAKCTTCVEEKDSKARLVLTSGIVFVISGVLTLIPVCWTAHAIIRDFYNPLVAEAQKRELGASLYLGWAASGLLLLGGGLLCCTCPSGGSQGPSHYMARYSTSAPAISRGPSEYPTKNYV
Method: Since the antigen for the 218B1 antibody and 218C7 antibody was estimated to be claudin-6 from the mass spectrometry, forced expression analysis by cDNA transfection was carried out.

[5] = system: BxPC-3, human pancreatic cancer cell line of human CLDN6-negative cells; test: Internalization activity of antibodies (Mab-ZAP, CellTiter-Glo); type: cell-based; details: antibody 1 nM with Mab-ZAP 0.5 nM, 5 days
Method: (§6) Internalization activity of the mouse anti-CLDN6 antibodies B1 and C7 was evaluated by using the anti-mouse IgG reagent, to which a toxin that inhibits protein synthesis (saporin) had been conjugated, Mab-ZAP (Advanced Targeting Systems). In this evaluation, Mab-ZAP is incorporated into cells in a manner depending on the internalization activity of a mouse anti-CLDN6 antibody, and saporin, which inhibits protein synthesis, is released in the cells to suppress cell growth.
(§7) JEG-3 (ATCC HTB-36), a human choriocarcinoma cell line of human CLDN6-positive cells, NIH: OVCAR-3 (ATCC HTB-161), a human ovarian cancer cell line of human CLDN6-positive cells, or BxPC-3 (ATCC CRL-1687), a human pancreatic cancer cell line of human CLDN6-negative cells, was seeded in a 96-well cell culture microplate at 2×10^3 cells/well, and cultured under conditions of 37° C. and 5% CO2 overnight. On the next day, a mixed solution obtained by mixing each mouse anti-CLDN6 antibody or mouse IgG1 antibody (R&D Systems, Inc.) to a final concentration of 1 nM, with Mab-ZAP (final concentration: 0.5 nM) or AffiniPure Goat Anti-Mouse IgG, Fcγ Fragment Specific (Jackson ImmunoResearch Laboratories Inc.) (final concentration: 0.5 nM), without conjugated toxin, was added, and the cells were cultured under conditions of 37° C. and 5% CO2 for 5 days. The number of surviving cells was determined through quantification of ATP activity by using CellTiter-Glo Luminescent Cell Viability Assay (Promega Corporation).

[6] = system: JEG-3, human choriocarcinoma cell line of human CLDN6-positive cells; test: as above; type: cell-based; details: antibody 1 nM with Mab-ZAP 0.5 nM, 5 days
Method: as §6, §7

[7] = system: NIH: OVCAR-3, human ovarian cancer cell line of human CLDN6-positive cells; test: as above; type: cell-based; details: antibody 1 nM with Mab-ZAP 0.5 nM, 5 days
Method: as §6, §7

[8] = read-out: IC50, growth-suppressing effect, added singly, Calu-6, 6 days
[9] = read-out: IC50, growth-suppressing effect, added together with 2 μM olaparib, Calu-6, 6 days
[10] = read-out: IC50, growth-suppressing effect, added singly, FaDu, 6 days (test 2)
[11] = read-out: IC50, growth-suppressing effect, added together with 1 μM olaparib, FaDu, 6 days
[12] = read-out: IC50, growth-suppressing effect, added singly, FaDu, 6 days (test 3)
[13] = read-out: IC50, growth-suppressing effect, added together with 2 nM talazoparib, FaDu, 6 days

| Molecule | IC50 [1, 8] | IC50 [1, 9] | IC50 [2, 10] | IC50 [2, 11] | IC50 [3, 12] | IC50 [3, 13] | findings such as weight loss ([4]; Day 21, OV-90 model) | tumor growth inhibition (TGI) ([4]; niraparib 75 mg/kg oral for 5 days from Day 0, Day 21, OV-90) | FACS reaction (human claudin-6) | Cell growth-suppressing effect (internalization activity) [5] | Cell growth-suppressing effect (internalization activity) [6] | Cell growth-suppressing effect (internalization activity) [7] |
| --- | --- | --- | --- | --- | --- | --- | --- | --- | --- | --- | --- | --- |
| COc1cc2c(cc1OCCCCCOc1cc3c(cc1OC)C(=O)N1CC4(CC4)C[C@H]1CN3)N=C[C@@H]1CC3(CC3)CN1C2=O [derivative B, (11a′S)-7′-Methoxy-8′-[(5-{[(11a′S)-7′-methoxy-5′-oxo-5′,11a′-dihydro-1′H-spiro[cyclopropane-1,2′-pyrrolo[2,1-c][1,4]benzodiazepine]-8′-yl]oxy}pentyl)oxy]-1′,10′,11′,11a′-tetrahydro-5′H-spiro[cyclopropane-1,2′-pyrrolo[2,1-c][1,4]benzodiazepine]-5′-one] | 120 pM | 79.4 pM | 123 pM | 71.9 pM | 121 pM | 82.1 pM |  |  |  |  |  |  |
| COc1ccc(C2=CN3C(=O)c4cc(OC)c(OCCCOc5cc6c(cc5OC)C(=O)N5CC7(CC7)C[C@H]5C=N6)cc4NC[C@@H]3C2)cc1 [derivative C, (11a′S)-7′-Methoxy-8′-(3-{[(11aS)-7-methoxy-2-(4-methoxyphenyl)-5-oxo-5,10,11,11a-tetrahydro-1H-pyrrolo[2,1-c][1,4]benzodiazepin-8-yl]oxy}propoxy)-1′,11a′-dihydro-5′H-spiro[cyclopropane-1,2′-pyrrolo[2,1-c][1,4]benzodiazepine]-5′-one] | 113 pM | 89.4 pM | 73.2 pM | 44.5 pM | 83.1 pM | 51.2 pM |  |  |  |  |  |  |
| NC(=O)c1cccc2cn(-c3ccc([C@@H]4CCCNC4)cc3)nc12 [niraparib] |  |  |  |  |  |  | no particularly significant finding such as weight loss | 1% |  |  |  |  |
| B1 |  |  |  |  |  |  |  |  | strong positive reaction | no cell growth-suppressing effect | cell growth-suppressing effect | cell growth-suppressing effect |
